Data taken from ChEMBL document CHEMBL5316357, “Discovery of Linvencorvir (RG7907), a Hepatitis B Virus Core Protein Allosteric Modulator, for the Treatment of Chronic HBV Infection” (J Med Chem, 2023).

Legend:
[1] = Oral bioavailability in female Wistar Han rat at 3 mg/kg by LC-MS/MS analysis; format: ADME, organism-based; conditions: in vivo
[2] = AUClast in female minipig at 30 mg/kg,po by LC-MS/MS analysis; format: ADME, organism-based, Sus scrofa domesticus; set-up: dose 30 mg/kg, route po; conditions: pig, in vivo
[3] = Oral bioavailability in female Wistar Han rat at 30 mg/kg by LC-MS/MS analysis; format: ADME, organism-based; conditions: in vivo
[4] = AUClast in male minipig at 30 mg/kg,po by LC-MS/MS analysis; format: ADME, organism-based, Sus scrofa domesticus; set-up: dose 30 mg/kg, route po; conditions: pig, in vivo
[5] = Tmax in female Wistar Han rat at 30 mg/kg,po by LC-MS/MS analysis; format: ADME, organism-based; conditions: in vivo
[6] = AUClast in female minipig at 10 mg/kg,po by LC-MS/MS analysis; format: ADME, organism-based, Sus scrofa domesticus; set-up: dose 10 mg/kg, route po; conditions: pig, in vivo
[7] = Tmax in female cynomolgus monkey at 30 mg/kg,po by LC-MS/MS analysis; format: ADME, organism-based, Macaca fascicularis; conditions: in vivo
[8] = Half life in male Wistar Han rat at 3 mg/kg,po by LC-MS/MS analysis; format: ADME, organism-based; conditions: in vivo
[9] = Cmax in male minipig at 3 mg/kg,po by LC-MS/MS analysis; format: ADME, organism-based, Sus scrofa domesticus; set-up: dose 3 mg/kg, route po; conditions: pig, in vivo
[10] = AUClast in male minipig at 3 mg/kg,po by LC-MS/MS analysis; format: ADME, organism-based, Sus scrofa domesticus; set-up: dose 3 mg/kg, route po; conditions: pig, in vivo
[11] = Tmax in male Wistar Han rat at 3 mg/kg,po by LC-MS/MS analysis; format: ADME, organism-based; conditions: in vivo
[12] = AUClast in female cynomolgus monkey at 10 mg/kg,po by LC-MS/MS analysis; format: ADME, organism-based, Macaca fascicularis; set-up: dose 10 mg/kg, route po; conditions: in vivo
[13] = Oral bioavailability in male Wistar Han rat at 10 mg/kg by LC-MS/MS analysis; format: ADME, organism-based; conditions: in vivo
[14] = Volume of distribution at steady state in mouse plasma at 1 mg/kg,iv; format: ADME, organism-based; conditions: read-out: Vdss
[15] = Oral bioavailability in female Wistar Han rat at 10 mg/kg by LC-MS/MS analysis; format: ADME, organism-based; conditions: in vivo
[16] = Oral bioavailability in female minipig at 3 mg/kg by LC-MS/MS analysis; format: ADME, organism-based, Sus scrofa domesticus; conditions: pig, in vivo
[17] = Oral bioavailability in male cynomolgus monkey at 3 mg/kg by LC-MS/MS analysis; format: ADME, organism-based, Macaca fascicularis; conditions: in vivo
[18] = AUClast in female minipig at 3 mg/kg,po by LC-MS/MS analysis; format: ADME, organism-based, Sus scrofa domesticus; set-up: dose 3 mg/kg, route po; conditions: pig, in vivo
[19] = Oral bioavailability in mouse plasma at 3 mg/kg; format: ADME, organism-based; conditions: in vivo
[20] = Tmax in female cynomolgus monkey at 10 mg/kg,po by LC-MS/MS analysis; format: ADME, organism-based, Macaca fascicularis; conditions: in vivo
[21] = Oral bioavailability in female cynomolgus monkey at 30 mg/kg by LC-MS/MS analysis; format: ADME, organism-based, Macaca fascicularis; conditions: in vivo
[22] = AUClast in cynomolgus monkey at 2 mg/kg,iv by LC-MS/MS analysis; format: ADME, organism-based, Macaca fascicularis; set-up: dose 2 mg/kg, route iv; conditions: in vivo
[23] = Oral bioavailability in female cynomolgus monkey at 3 mg/kg by LC-MS/MS analysis; format: ADME, organism-based, Macaca fascicularis; conditions: in vivo
[24] = AUClast in male minipig at 10 mg/kg,po by LC-MS/MS analysis; format: ADME, organism-based, Sus scrofa domesticus; set-up: dose 10 mg/kg, route po; conditions: pig, in vivo
[25] = AUClast in male Wistar Han rat at 30 mg/kg,po by LC-MS/MS analysis; format: ADME, organism-based; set-up: dose 30 mg/kg, route po; conditions: in vivo
[26] = Oral bioavailability in male Wistar Han rat at 30 mg/kg by LC-MS/MS analysis; format: ADME, organism-based; conditions: in vivo
[27] = Tmax in female Wistar Han rat at 10 mg/kg,po by LC-MS/MS analysis; format: ADME, organism-based; conditions: in vivo
Cytochrome P450 3A4 = Cytochrome P450 3A4 (Homo sapiens, UniProt P08684); experiment: Inhibition of CYP3A4 (unknown origin); format: ADME
[28] = Half life in male minipig at 10 mg/kg,po by LC-MS/MS analysis; format: ADME, organism-based, Sus scrofa domesticus; conditions: pig, in vivo
[29] = Toxicity in rat assessed as NOAEL administrated upto 28 days; conditions: in vivo, time < 28 day
[30] = Oral bioavailability in male minipig at 10 mg/kg by LC-MS/MS analysis; format: ADME, organism-based, Sus scrofa domesticus; conditions: pig, in vivo
[31] = Half life in male Wistar Han rat at 30 mg/kg,po by LC-MS/MS analysis; format: ADME, organism-based; conditions: in vivo
[32] = Half life in female minipig at 30 mg/kg,po by LC-MS/MS analysis; format: ADME, organism-based, Sus scrofa domesticus; conditions: pig, in vivo
[33] = Octanol-water partition coefficient, logD of the compound at pH 7.4; format: physicochemical
[34] = Clearance in mouse plasma at 1 mg/kg,iv; format: ADME, organism-based
[35] = Cmax in male minipig at 10 mg/kg,po by LC-MS/MS analysis; format: ADME, organism-based, Sus scrofa domesticus; set-up: dose 10 mg/kg, route po; conditions: pig, in vivo
[36] = Volume of distribution at steady state in Wistar Han rat at 2 mg/kg,iv by LC-MS/MS analysis; format: ADME, organism-based; conditions: in vivo, read-out: Vdss
Cytochrome P450 2C9 = Cytochrome P450 2C9 (Homo sapiens, UniProt P11712); experiment: Inhibition of CYP2C9 (unknown origin); format: ADME
[37] = AUClast in female Wistar Han rat at 3 mg/kg,po by LC-MS/MS analysis; format: ADME, organism-based; set-up: dose 3 mg/kg, route po; conditions: in vivo
[38] = Oral bioavailability in male cynomolgus monkey at 10 mg/kg by LC-MS/MS analysis; format: ADME, organism-based, Macaca fascicularis; conditions: in vivo
[39] = Oral bioavailability in male minipig at 3 mg/kg by LC-MS/MS analysis; format: ADME, organism-based, Sus scrofa domesticus; conditions: pig, in vivo
[40] = Tmax in male Wistar Han rat at 10 mg/kg,po by LC-MS/MS analysis; format: ADME, organism-based; conditions: in vivo
[41] = Cmax in female minipig at 10 mg/kg,po by LC-MS/MS analysis; format: ADME, organism-based, Sus scrofa domesticus; set-up: dose 10 mg/kg, route po; conditions: pig, in vivo
[42] = AUClast in female Wistar Han rat at 30 mg/kg,po by LC-MS/MS analysis; format: ADME, organism-based; set-up: dose 30 mg/kg, route po; conditions: in vivo
[43] = Cmax in male minipig at 30 mg/kg,po by LC-MS/MS analysis; format: ADME, organism-based, Sus scrofa domesticus; set-up: dose 30 mg/kg, route po; conditions: pig, in vivo
[44] = AUC (0-infinity) in mouse plasma at 1 mg/kg,iv; format: ADME, organism-based; set-up: dose 1 mg/kg, route iv; conditions: in vivo
Cytochrome P450 2D6 = Cytochrome P450 2D6 (Homo sapiens, UniProt P10635); experiment: Inhibition of CYP2D6 (unknown origin); format: ADME
[45] = Clearance in Wistar Han rat at 2 mg/kg,iv by LC-MS/MS analysis; format: ADME, organism-based; conditions: in vivo
[46] = Toxicity in minipig assessed as NOAEL administrated upto 28 days; set-up: species or system Sus scrofa domesticus; conditions: pig, in vivo; time < 28 day
[47] = Clearance in rat plasma at 1 mg/kg,iv; format: ADME, organism-based
[48] = Half life in minipig at 2 mg/kg,iv by LC-MS/MS analysis; format: ADME, organism-based, Sus scrofa domesticus; conditions: pig, in vivo
[49] = Cmax in female cynomolgus monkey at 3 mg/kg,po by LC-MS/MS analysis; format: ADME, organism-based, Macaca fascicularis; set-up: dose 3 mg/kg, route po; conditions: in vivo
[50] = Tmax in female minipig at 3 mg/kg,po by LC-MS/MS analysis; format: ADME, organism-based, Sus scrofa domesticus; conditions: pig, in vivo
[51] = Oral bioavailability in female minipig at 30 mg/kg by LC-MS/MS analysis; format: ADME, organism-based, Sus scrofa domesticus; conditions: pig, in vivo
[52] = Oral bioavailability in female minipig at 10 mg/kg by LC-MS/MS analysis; format: ADME, organism-based, Sus scrofa domesticus; conditions: pig, in vivo
[53] = Half life in female minipig at 10 mg/kg,po by LC-MS/MS analysis; format: ADME, organism-based, Sus scrofa domesticus; conditions: pig, in vivo
[54] = Oral bioavailability in male Wistar Han rat at 3 mg/kg by LC-MS/MS analysis; format: ADME, organism-based; conditions: in vivo
[55] = Clearance in cynomolgus monkey at 2 mg/kg,iv by LC-MS/MS analysis; format: ADME, organism-based, Macaca fascicularis; conditions: in vivo

Chain of Cytochrome P450 2C9 (P11712 whole entry): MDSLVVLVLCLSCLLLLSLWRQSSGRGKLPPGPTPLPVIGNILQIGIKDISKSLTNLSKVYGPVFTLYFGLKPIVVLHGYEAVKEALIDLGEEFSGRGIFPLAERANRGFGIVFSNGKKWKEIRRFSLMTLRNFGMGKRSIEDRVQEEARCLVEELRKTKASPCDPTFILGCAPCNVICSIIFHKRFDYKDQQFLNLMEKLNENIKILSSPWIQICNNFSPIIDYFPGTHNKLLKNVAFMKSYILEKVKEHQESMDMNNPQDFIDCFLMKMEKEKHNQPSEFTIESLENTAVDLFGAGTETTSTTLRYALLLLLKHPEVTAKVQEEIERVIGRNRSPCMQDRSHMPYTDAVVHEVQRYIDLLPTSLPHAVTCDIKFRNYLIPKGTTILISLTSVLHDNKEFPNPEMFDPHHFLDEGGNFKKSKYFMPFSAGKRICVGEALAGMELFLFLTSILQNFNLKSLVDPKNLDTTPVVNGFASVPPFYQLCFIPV
Chain of Cytochrome P450 2D6 (P10635 whole entry): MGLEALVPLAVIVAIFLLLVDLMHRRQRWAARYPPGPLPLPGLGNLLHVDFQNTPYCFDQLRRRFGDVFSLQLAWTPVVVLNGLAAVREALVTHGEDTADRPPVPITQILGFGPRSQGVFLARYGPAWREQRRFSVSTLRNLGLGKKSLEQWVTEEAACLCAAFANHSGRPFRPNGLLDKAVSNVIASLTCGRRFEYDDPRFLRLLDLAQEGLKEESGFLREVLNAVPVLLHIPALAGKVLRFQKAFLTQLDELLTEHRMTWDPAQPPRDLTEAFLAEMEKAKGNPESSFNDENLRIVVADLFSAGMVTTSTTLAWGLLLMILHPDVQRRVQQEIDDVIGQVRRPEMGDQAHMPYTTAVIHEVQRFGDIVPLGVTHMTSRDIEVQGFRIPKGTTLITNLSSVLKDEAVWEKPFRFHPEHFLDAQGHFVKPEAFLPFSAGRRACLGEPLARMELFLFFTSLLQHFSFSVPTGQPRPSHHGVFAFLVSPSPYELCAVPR
Chain of Cytochrome P450 3A4 (P08684 whole entry): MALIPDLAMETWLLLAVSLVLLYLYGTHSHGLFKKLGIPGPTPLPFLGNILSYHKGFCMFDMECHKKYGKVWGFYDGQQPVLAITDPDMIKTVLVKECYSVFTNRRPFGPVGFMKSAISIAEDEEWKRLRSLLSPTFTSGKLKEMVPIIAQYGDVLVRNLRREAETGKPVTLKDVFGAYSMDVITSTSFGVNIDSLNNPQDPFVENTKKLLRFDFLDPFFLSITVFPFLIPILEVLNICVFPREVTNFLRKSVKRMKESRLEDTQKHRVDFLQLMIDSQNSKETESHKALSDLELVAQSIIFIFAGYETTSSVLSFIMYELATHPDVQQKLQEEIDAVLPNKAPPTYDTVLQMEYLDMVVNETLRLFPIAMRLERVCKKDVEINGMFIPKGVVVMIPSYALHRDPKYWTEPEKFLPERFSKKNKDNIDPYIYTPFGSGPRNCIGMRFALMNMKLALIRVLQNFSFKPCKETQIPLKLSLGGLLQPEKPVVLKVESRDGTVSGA

SMILES: CCOC(=O)C1=C(CN2CCN3C(=O)N(CC(C)(C)C(=O)O)C[C@@H]3C2)NC(c2nccs2)=N[C@H]1c1cccc(F)c1C [LINVENCORVIR]
- bioavailability [1]: 14.3%
- AUC(0-t) [2]: 2550 ng·h/mL
- bioavailability [3]: 105%
- AUC(0-t) [4]: 4150 ng·h/mL
- Tmax [5]: 2 h
- AUC(0-t) [6]: 768 ng·h/mL
- Tmax [7]: 2 h
- half-life [8]: 1.87 h
- Cmax [9]: 67.3 ng/mL
- AUC(0-t) [10]: 228 ng·h/mL
- Tmax [11]: 0.5 h
- AUC(0-t) [12]: 1060 ng·h/mL
- bioavailability [13]: 26.2%
- Vd [14]: 1 L/kg
- bioavailability [15]: 36.4%
- bioavailability [16]: 10.6%
- bioavailability [17]: 10.3%
- AUC(0-t) [18]: 201 ng·h/mL
- F [19]: 33%
- Tmax [20]: 0.5 h
- bioavailability [21]: 18.6%
- AUC(0-t) [22]: 1490 ng·h/mL
- bioavailability [23]: 14.5%
- AUC(0-t) [24]: 1240 ng·h/mL
- AUC(0-t) [25]: 8500 ng·h/mL
- bioavailability [26]: 50%
- Tmax [27]: 1 h
- IC50 (Cytochrome P450 3A4): > 50 µM
- half-life [28]: 7.28 h
- NOAEL at 672 h [29]: 250 mg/kg
- bioavailability [30]: 18.6%
- half-life [31]: 2.79 h
- half-life [32]: 8.26 h
- logD [33]: 1.75
- clearance [34]: 20 mL/min/kg
- Cmax [35]: 248 ng/mL
- Vd [36]: 1.34 L/kg
- IC50 (Cytochrome P450 2C9): > 50 µM
- AUC(0-t) [37]: 220 ng·h/mL
- bioavailability [38]: 15.8%
- bioavailability [39]: 12.6%
- Tmax [40]: 1.5 h
- Cmax [41]: 132 ng/mL
- AUC(0-t) [42]: 17800 ng·h/mL
- Cmax [43]: 768 ng/mL
- AUC [44]: 837 ng·h/mL
- IC50 (Cytochrome P450 2D6): > 50 µM
- clearance [45]: 30.5 mL/min/kg
- NOAEL at 672 h [46]: 350 mg/kg
- clearance [47]: 30 mL/min/kg
- half-life [48]: 2.19 h
- Cmax [49]: 100 ng/mL
- Tmax [50]: 1 h
- bioavailability [51]: 12.4%
- bioavailability [52]: 11.4%
- half-life [53]: 9.7 h
- bioavailability [54]: 13.5%
- clearance [55]: 23.6 mL/min/kg
